From patent publication US12310973B2, “Administration and dosage of diaminophenothiazines” (WisTa Laboratories Ltd., priority 2016, dated 2025)
Values joined by “and” are separate entries in the source; they are usually repeats but may differ in a detail not shown here. Identical values can stand only once.

How the values were obtained:
[1] = tested on: mild to moderate AD patients; assay: Phase 3 trial in mild to moderate AD: ADAS-cog change from baseline; assay type: in vivo, human
From the text: (§1) The co-primary efficacy outcomes were change from baseline in 11-item Alzheimer's Disease Assessment Scale—cognitive subscale (ADAS-cog) and the 23-item Alzheimer's Disease Cooperative Study Activities of Daily Living (ADCS-ADL). Magnetic resonance imaging (MRI) volumetry was chosen as the principal secondary outcome to support a potential effect on the rate of brain atrophy (Fox et al., 1997; Ridha et al., 2008). Change in Lateral Ventricular Volume (LVV), as measured by the Ventricular Boundary Shift Integral (VBSI), (Salloway et al., 2014) was chosen as the principal measure as it provides high-contrast boundaries for measurement and is less affected by motion artefacts than whole brain or smaller structures. Key supportive topographical measures (temporo-parietal (TPV) and hippocampal volume (HV)) are also reported.
(§2) Patients were recruited at 115 sites across 16 countries between January 2013 and August 2014. Enrolment of approximately 833 patients was targeted, with 891 patients actually recruited, in order to obtain data on approximately 500 patients completing the study, assuming a 30-40% drop-out rate. […] Adult caregiver(s) were required to participate. Concomitant use of AChEIs and/or memantine was permitted, provided the patient had been taking the medication(s) for […], with no changes to the dosage for 26 weeks prior to screening. Concomitant use of serotonergic antidepressant medication was permitted, but patients were monitored closely using a targeted rating scale derived from 4 published diagnostic criteria (Alusik et al., 2014) due to a theoretical potential for serotonin syndrome (Ramsay et al., 2007). […] Because MT^+ in high doses can induce methaemoglobinaemia, subjects with glucose-6-phosphate dehydrogenase deficiency or who were otherwise at haematological risk were excluded. Other inclusion/exclusion criteria are provided in the Supplementary Materials.
(§3) Patients were randomised at baseline to LMTM 75 mg b.i.d. or 125 mg b.i.d. (expressed as MT base equivalent) or control in a 3:3:4 ratio. The randomisation was stratified according to geographical region (3 levels: North America, Europe, rest of world), use of AD-labelled co-medications (2 levels, using or not using) and severity (2 levels, moderate MMSE 14-19 inclusive, mild MMSE 20-26 inclusive). Patients in the control arm received a dose of 4 mg b.i.d. to maintain blinding.
(§4) ADAS-cog and ADCS-ADL assessments were performed at baseline and every 13 weeks thereafter, with change at 65 weeks (the final on-treatment visit) the primary efficacy measures. These were repeated at the final off-treatment follow-up visit at Week 69. Secondary efficacy measures included Clinical Global Impression of Change (ADCS-CGIC, administered by an independent rater); MMSE, administered on screening and at Weeks 26, 52, 65 and 69. Brain MRI scans were performed at baseline/screening and every 13 weeks using a standardized protocol including volumetric 3D T1-weighted data consistent with ADNI recommendations, FLAIR, T2* Gradient Echo and T2-weighted sequences. Diffusion-Weighted Imaging was also available at screening in order to exclude patients with co-existing pathology that would lead to a diagnosis other than probable AD. Each site was first qualified ensuring standardised acquisition protocol, patient handling and data management. MRI data were centrally collected by Imaging Corelab (Bioclinica). Data were centrally reviewed by RadMD for eligibility and safety (Amyloid Related Imaging Abnormalities, or ARIA monitoring) on an on-going basis. Volumetric 3DT1 data were also reviewed centrally in order to measure (using a boundary shift integral (BSI) technique; Salloway et al., 2014) change in LVV as principal secondary outcome measure, and as exploratory endpoints temporo-parietal volume (TPV), whole brain volume (WBV) and hippocampal volume (HV, estimated as the mean of left and right) (Wischik et al., 2016). […]

[2] = tested on: mild to moderate AD patients; assay: Phase 3 trial in mild to moderate AD: ADCS-ADL change from baseline; assay type: in vivo, human
From the text: as §1, §2, §3, §4

[3] = 75 mg b.i.d. monotherapy, 65 weeks
[4] = 125 mg b.i.d. monotherapy, 65 weeks
[5] = Table 2 primary analysis, 65 weeks, covariates additive, control arm (LMTM 4 mg b.i.d.)
[6] = Table 2 primary analysis, 65 weeks, 75 mg b.i.d.
[7] = Table 2 primary analysis, 65 weeks, 125 mg b.i.d.
[8] = Table 2 primary analysis, 65 weeks, patients not using AChEI/Mem (additive covariate)
[9] = Table 3, AChEI/Mem as interaction term, 65 weeks, 75 mg b.i.d. + AChEI/Mem
[10] = Table 3, AChEI/Mem as interaction term, 65 weeks, 75 mg b.i.d. monotherapy
[11] = Table 3, AChEI/Mem as interaction term, 65 weeks, 125 mg b.i.d. + AChEI/Mem
[12] = Table 3, AChEI/Mem as interaction term, 65 weeks, 125 mg b.i.d. monotherapy
[13] = Table 3, AChEI/Mem as interaction term, 65 weeks, control arm (4 mg b.i.d.)
[14] = Table 4 post-hoc, control-arm subjects, 4 mg b.i.d. + AChEI/Mem
[15] = Table 4 post-hoc, control-arm subjects, 4 mg b.i.d. monotherapy vs 4 mg b.i.d. + AChEI/Mem
[16] = Table 7, mild AD, 4 mg b.i.d. + AChEI/Mem (control-arm subjects)
[17] = Table 7, mild AD, 4 mg b.i.d. alone vs 4 mg b.i.d. + AChEI/Mem
[18] = Table 7, mild AD, 75 mg b.i.d. alone vs control arm as randomised
[19] = Table 7, mild AD, 125 mg b.i.d. alone vs control arm as randomised
[20] = Table 7, mild AD, control arm as randomised (4 mg b.i.d.)
[21] = Table 7, moderate AD, 4 mg b.i.d. + AChEI/Mem (control-arm subjects)
[22] = Table 7, moderate AD, 4 mg b.i.d. alone vs 4 mg b.i.d. + AChEI/Mem
[23] = Table 7, moderate AD, 75 mg b.i.d. alone vs control arm as randomised
[24] = Table 7, moderate AD, 125 mg b.i.d. alone vs control arm as randomised
[25] = Table 7, moderate AD, control arm as randomised (4 mg b.i.d.)
[26] = control arm (LMTM 4 mg b.i.d.), 12 months
[27] = mild patients, LMTM monotherapy

CN(C)c1ccc2c(c1)Sc1cc(N(C)C)ccc1N2 [LMTM, leuco-methythioninium bis(hydromethanesulfonate)]
ADAS-cog treatment effect as % of the decline over 65 weeks seen in the control arm (mean±SE) [1, 3]: 103%±23%
ADAS-cog treatment effect as % of the decline over 65 weeks seen in the control arm (mean±SE) [1, 4]: 83%±23%
ADAS-cog, Estimate (change from baseline) [1, 5]: 6.32 ADAS-cog units
ADAS-cog, Estimate (difference with respect to control) [1, 6]: −0.02 ADAS-cog units
ADAS-cog, Estimate (difference with respect to control) [1, 7]: −0.43 ADAS-cog units
ADAS-cog, Estimate (mean additive treatment benefit) [1, 8]: −2.30 ADAS-cog units
ADAS-cog, Estimate (difference vs control) [1, 9]: 1.02 ADAS-cog units
ADAS-cog, Estimate (difference vs control) [1, 10]: −6.25 ADAS-cog units
ADAS-cog, Estimate (difference vs control) [1, 11]: 0.50 ADAS-cog units
ADAS-cog, Estimate (difference vs control) [1, 12]: −5.79 ADAS-cog units
ADAS-cog, Estimate (change from baseline) [1, 13]: 5.98 ADAS-cog units
ADAS-cog, Estimate (change from baseline) [1, 14]: 6.79 ADAS-cog units
ADAS-cog, Estimate (difference) [1, 15]: −5.90 ADAS-cog units
ADAS-cog, Estimate (change from baseline) [1, 16]: 3.24 ADAS-cog units
ADAS-cog, Estimate (difference) [1, 17]: −6.41 ADAS-cog units
ADAS-cog, Estimate (difference) [1, 18]: −8.89 ADAS-cog units
ADAS-cog, Estimate (difference) [1, 19]: −5.03 ADAS-cog units
ADAS-cog, Estimate (change from baseline) [1, 20]: 2.27 ADAS-cog units
ADAS-cog, Estimate (change from baseline) [1, 21]: 8.49 ADAS-cog units
ADAS-cog, Estimate (difference) [1, 22]: −4.74 ADAS-cog units
ADAS-cog, Estimate (difference) [1, 23]: −2.01 ADAS-cog units
ADAS-cog, Estimate (difference) [1, 24]: −5.75 ADAS-cog units
ADAS-cog, Estimate (change from baseline) [1, 25]: 7.89 ADAS-cog units
ADAS-cog decline at 12 months (mean±se) [1, 26]: 3.85±0.47
Mean treatment benefit relative to control on ADAS-cog [1, 27]: 240%±41%
ADCS-ADL effect size as % of the decline over 65 weeks seen in the control arm [2, 3]: 82%±23%
ADCS-ADL effect size as % of the decline over 65 weeks seen in the control arm [2, 4]: 88%±23%
ADCS-ADL, Estimate (change from baseline) [2, 5]: −8.22 ADCS-ADL units
ADCS-ADL, Estimate (difference with respect to control) [2, 6]: −0.93 ADCS-ADL units
ADCS-ADL, Estimate (difference with respect to control) [2, 7]: −0.34 ADCS-ADL units
ADCS-ADL, Estimate (mean additive treatment benefit) [2, 8]: 2.00 ADCS-ADL units
ADCS-ADL, Estimate (difference vs control) [2, 9]: −2.16 ADCS-ADL units
ADCS-ADL, Estimate (difference vs control) [2, 10]: 6.48 ADCS-ADL units
ADCS-ADL, Estimate (difference vs control) [2, 11]: −1.62 ADCS-ADL units
ADCS-ADL, Estimate (difference vs control) [2, 12]: 6.92 ADCS-ADL units and 6.93 ADCS-ADL units
ADCS-ADL, Estimate (change from baseline) [2, 13]: −7.92 ADCS-ADL units
ADCS-ADL, Estimate (change from baseline) [2, 14]: −8.90 ADCS-ADL units
ADCS-ADL, Estimate (difference) [2, 15]: 7.19 ADCS-ADL units
ADCS-ADL, Estimate (change from baseline) [2, 16]: −3.86 ADCS-ADL units
ADCS-ADL, Estimate (difference) [2, 17]: 5.20 ADCS-ADL units
ADCS-ADL, Estimate (difference) [2, 18]: 4.65 ADCS-ADL units
ADCS-ADL, Estimate (difference) [2, 19]: 7.77 ADCS-ADL units
ADCS-ADL, Estimate (change from baseline) [2, 20]: −3.20 ADCS-ADL units
ADCS-ADL, Estimate (change from baseline) [2, 21]: −11.91 ADCS-ADL units
ADCS-ADL, Estimate (difference) [2, 22]: 7.70 ADCS-ADL units
ADCS-ADL, Estimate (difference) [2, 23]: 6.89 ADCS-ADL units
ADCS-ADL, Estimate (difference) [2, 24]: 5.53 ADCS-ADL units
ADCS-ADL, Estimate (change from baseline) [2, 25]: −10.93 ADCS-ADL units
ADCS-ADL decline at 12 months (mean±se) [2, 26]: −6.51±0.63
Mean treatment benefit relative to control on ADCS-ADL [2, 27]: 156%±39%
